Laboratory results as given in US20060019907A1, “Guggulsterone: an inhibitor of nuclear factor - kappaB and IkappaBalpha kinase activation and uses thereof” (Research Development Foundation, priority 2004, published 2006).

Key:
NF-κB [1] = assay: TNF-induced NF-κB activation by EMSA in A549, Jurkat and KBM-5 cells; assay type: cell-based, human; settings: 50 μM, 4 hours, then 0.1 nM TNF 30 min
Procedure: NF-κB Activation: To determine NF-κB activation, EMSA was carried out as previously described (Chaturvedi et al., 2000). Briefly, nuclear extracts prepared from cells (2×10^6/ml) treated with TNF were incubated with ^32P-end-labeled 45-mer double-stranded NF-κB oligonucleotide (8 μg of protein with […] of DNA) from the human immunodeficiency virus long terminal repeat, 5′-[…] GGCGTGG-3′ (SEQ ID NO:1) (boldface indicates NF-κB binding sites), for 15 min at 37° C. The DNA-protein complex formed was separated from free oligonucleotide on 6.6% native polyacrylamide gels. A double-stranded mutated oligonucleotide, 5′-[…]-3′ (SEQ ID NO:2), was used to examine the specificity of binding of NF-κB to the DNA. The specificity of binding was also examined by competition with the unlabeled oligonucleotide. For supershift assays, nuclear extracts prepared from TNF-treated cells were incubated with antibodies against either the p50 or the p65 subunit of NF-κB for 30 min at room temperature before the complex was analyzed by EMSA. The dried gels were visualized, and radioactive bands were quantitated using a PHOSPHORIMAGER™ (Molecular Dynamics, Sunnyvale, Calif.) using IMAGEQUANT™ software.

Akt = assay: TNF-induced Akt activation, Western blot with phospho-specific anti-Akt; assay type: cell-based; settings: pretreatment with guggulsterone, TNF (1 nM)
Source text: Guggulsterone Suppressed TNF-induced Activation of Akt: The results till now indicate that guggulsterone inhibits TNF-induced NF-κB activation through inhibition of IKK activation. It is possible that this inhibition is due to inhibition of an upstream kinase. Previous studies have reported that Akt can activate IKK. Thus it is possible that guggulsterone suppresses TNF-induced Akt activation. To determine the effect of guggulsterone on the activation of Akt induced by TNF, the cells were treated with guggulsterone, and then exposed to TNF (1 nM) for different times. Thereafter whole-cell extracts were prepared and Western blot analysis using phospho-specific anti-Akt antibody was performed.

U937 cells [2] = assay: Cell cycle, flow cytometric analysis; assay type: cell-based, human; settings: 10 μM, propidium iodide flow cytometry
Procedure: Flow cytometric analysis. To determine the effect of guggulsterone on the cell cycle, U937 cells were treated for different times, washed, and fixed with 70% ethanol. After an overnight incubation at −20° C., cells were washed with PBS, and then suspended in staining buffer (Propidium iodide, 10 μg/ml; Tween-20, 0.5%; RNase, 0.1% in PBS). The cells were analyzed using a FACS Vantage flow cytometer that uses CellQuest acquisition and analysis programs (Becton Dickinson, San Jose, Calif.). Gating was set to exclude cell debris, cell doublets, and cell clumps.

bile salt export pump = settings: Cui et al., 2003; cited from earlier work
NF-κB [3] = assay: NF-κB-dependent reporter gene (SEAP) transcription; assay type: cell-based, human
Procedure: NF-κB-dependent Reporter Gene Transcription: The effect of guggulsterone on TNF-induced NF-κB dependent reporter gene transcription was measured as previously described (Manna et al., 2000). Briefly, H1299 cells (5×10^5 cells/well) were plated in six-well plates and transiently transfected the next day by LIPOFECTAMINETM 2000 method with pNF-κB-SEAP using the manufacturer's protocol. To examine TNF-induced reporter gene expression, cells was transfected with 2 μg of the SEAP expression plasmid. After 18 hours, medium was removed, cells were rinsed and treated with various doses of guggulsterone for 4 hours and then treated with TNF. Twenty four hours later, the cell culture medium was harvested and analyzed for alkaline phosphatase (SEAP) activity essentially according to the protocol described by the manufacturer (Clontech, Palo Alto, Calif.) using a 96-well fluorescence plate reader ([…]; Labsystems, Chicago, Ill.) with excitation set at 360 nm and emission set at 460 nm.

RAW 264.7 cells = assay: Tumor cell (MDA-MB-468, U266) co-incubation-induced osteoclastogenesis; assay type: cell-based, mouse; settings: RAW 264.7 co-incubation, GS 5 μM
U937 cells [4] = assay: Thymidine incorporation assay; assay type: cell-based, human; settings: 72 h
Procedure: Thymidine incorporation assay. The antiproliferative effects of guggulsterone were also monitored by the thymidine incorporation method. For this, 5000 cells in 100 μL medium were cultured in triplicate in 96-well plates in the presence or absence of guggulsterone for 72 hours. At 6 hours before the completion of experiment, cells were pulsed with 0.5 μCi (0.0185 MBq) ^3H-thymidine, and the uptake of ^3H-thymidine was monitored by means of a Matrix-9600 β-counter (Packard Instruments, Downers Grove, Ill.).

PARP = PARP cleavage assay, TNF plus guggulsterone; assay type: cell-based, human; settings: KBM-5, serum starved 24 hours; TNF in combination with guggulsterone
Procedure: PARP cleavage assay: For detection of cleavage products of PARP, whole-cell extracts were prepared by subjecting the guggulsterone-treated cells to lysis in lysis buffer (20 mM Tris, pH 7.4; 250 mM NaCI; 2 mM EDTA, pH 8.0; 0.1% Triton-X 100; 0.01 μg/ml aprotinin; 0.005 μg/ml leupeptin; 0.4 mM PMSF; and 4 mM NaVO4). Lysates will be spun at 14000 rpm for 10 min to remove insoluble material, resolved by 10% SDS PAGE, and probed with PARP antibodies. PARP is cleaved from the 116-kDa intact protein into 85-kDa and […] peptide products. To detect cleavage products of procaspase-3 and procaspase-9, whole-cell extracts will be resolved by 10% SDS PAGE and probed with appropriate antibodies.

STAT3 = assay: Constitutive STAT3 phosphorylation in U266 cells, Western blot; assay type: cell-based, human
Procedure: Western blot. For detection of STAT proteins, whole-cell extracts were prepared by lysing the guggulsterone-treated cells in lysis buffer (20 mM Tris, pH 7.4, 250 mM NaCl, 2 mM EDTA, pH 8.0, 0.1% Triton −X100, 0.01 mg/ml aprotinin, 0.005 mg/ml leupeptin, 0.4 mM PMSF, and 4 mM NaVO4). Lysates were then spun at 14,000 rpm for 10 min to remove insoluble material, and resolved on a 7.5% gel. After electrophoresis, the proteins were electrotransferred to a nitrocellulose membrane, blocked with 5% nonfat milk, and probed with anti-STAT antibodies (1:1000) overnight at 4° C. The blot was washed, exposed to HRP-conjugated secondary antibodies for 1 h, and finally examined by chemiluminescence (ECL, Amersham Pharmacia Biotech. Arlington Heights, Ill.).

CC=C1C(=O)C[C@H]2[C@@H]3CCC4=CC(=O)CC[C@]4(C)[C@H]3CC[C@]12C [guggulsterone, 4,17(20)-pregnadiene-3,16-dione]
TNF-induced NF-κB activation in A549, Jurkat and KBM-5 cells (NF-κB [1]): completely inhibited this activation | TNF-induced Akt activation (Akt): completely suppressed the activation | cell cycle arrest (U937 cells [2]): arrested the cell cycle in S-phase | transcription of the bile salt export pump (bile salt export pump): enhances transcription of the bile salt export pump | NF-κB-dependent SEAP expression induced by TNFR, TRADD, NIK and IKKβ plasmids (NF-κB [3]; H1299, 50 μM, 4 hours): suppressed reporter gene expression induced by TNFR, TRADD, NIK and IKKβ plasmids | NF-κB-dependent SEAP expression induced by p65 plasmid (NF-κB [3]; H1299, 50 μM, 4 hours): had no effect on that induced by p65 | TNF-induced NF-κB-dependent SEAP expression (NF-κB [3]; H1299 cells, 0.1 nM TNF 24 hours): inhibited by guggulsterone in a dose-dependent manner | osteoclast differentiation induced by co-incubation of U266 cells with macrophages (RAW 264.7 cells): induced osteoclast differentiation was suppressed | MDA-MB-468 cells-induced and U266 cells-induced osteoclast differentiation (RAW 264.7 cells; 5 days): suppressed osteoclastogenesis | proliferation of U937 cells, 3H-thymidine incorporation (U937 cells [4]): inhibits proliferation in U937 cells | caspase-induced cleavage of PARP activated by TNF (PARP): enhanced the caspase-induced cleavage of PARP activated by TNF | overall expression of STAT3 protein (STAT3): did not alter the overall expression of STAT3 protein | earliest time at which inhibition of constitutive STAT3 phosphorylation is observed (STAT3; 25 μM): 4 h | lowest concentration at which inhibition of constitutive STAT3 phosphorylation is observed (STAT3; 4 h): 25 µM | constitutively active (phosphorylated) STAT3 (STAT3; time- and dose-dependent): inhibited the constitutively active STAT3
